Assay results taken from publication PMC11996873, “Asparagine drives immune evasion in bladder cancer via RIG-I stability and type I IFN signaling” (The Journal of Clinical Investigation, 2025).

Target: T1, RIG-I (Homo sapiens, UniProt O95786)
T1 construct: gene RIGI
T1 sequence (O95786 1-925): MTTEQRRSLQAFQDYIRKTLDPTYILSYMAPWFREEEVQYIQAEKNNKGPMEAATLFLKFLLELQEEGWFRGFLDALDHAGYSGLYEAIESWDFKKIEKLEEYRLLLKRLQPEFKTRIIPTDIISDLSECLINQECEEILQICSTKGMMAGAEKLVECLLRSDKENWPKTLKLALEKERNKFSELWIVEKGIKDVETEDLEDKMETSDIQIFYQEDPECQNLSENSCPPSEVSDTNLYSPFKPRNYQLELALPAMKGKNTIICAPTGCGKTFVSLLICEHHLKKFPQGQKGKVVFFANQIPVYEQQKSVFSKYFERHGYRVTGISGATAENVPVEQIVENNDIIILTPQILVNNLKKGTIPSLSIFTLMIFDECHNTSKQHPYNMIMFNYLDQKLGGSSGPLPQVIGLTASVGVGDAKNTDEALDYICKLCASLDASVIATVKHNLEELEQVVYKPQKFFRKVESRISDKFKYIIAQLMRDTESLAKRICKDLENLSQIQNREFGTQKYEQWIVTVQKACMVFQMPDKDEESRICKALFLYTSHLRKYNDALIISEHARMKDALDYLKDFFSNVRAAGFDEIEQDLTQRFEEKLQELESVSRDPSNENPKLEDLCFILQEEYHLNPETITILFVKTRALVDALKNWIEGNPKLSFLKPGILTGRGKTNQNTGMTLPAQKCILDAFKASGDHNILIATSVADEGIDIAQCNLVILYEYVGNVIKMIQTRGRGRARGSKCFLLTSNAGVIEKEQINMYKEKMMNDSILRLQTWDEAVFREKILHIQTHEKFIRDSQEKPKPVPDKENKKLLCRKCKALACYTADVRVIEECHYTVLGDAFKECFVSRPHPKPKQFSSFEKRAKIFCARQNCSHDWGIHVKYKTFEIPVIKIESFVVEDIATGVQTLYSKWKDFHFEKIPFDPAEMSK
Test: microscale thermophoresis (Monolith NT.[…])
Assay type: binding

Kd: 303 µM
Structure (SMILES): NC(=O)C[C@H](N)C(=O)O [asparagine]
